Assay results: patent publication US9387170B2, “Drug having regulatory cell ligand contained in liposome” (RIKEN, priority 2004, dated 2016)

Experiments:
[1] = test system: immunopotentiation and anti-tumor effects; details: cited from earlier work
spleen CD11c+ DC = assay: In vitro activity of ligand-containing liposome for dendritic cells: cytokine production; assay type: cell-based, BALB/c or C57BL/6 mouse; details: liposome composition 1 μg/mL, 48 hours, ELISA
Method: Collagenase D (1 mg/mL, Roche) was injected into spleen from BALB/c or C57BL/6 mouse, which was then incubated in a CO2 incubator for 45 minutes. Subsequently, cells were collected from the spleen, suspended in 3 mL of HistoDenz (14.1%, SIGMA), and then X-VIVO 15 (Takara Bio) containing 50 μM 2-mercaptoethanol (2ME) was overlaid thereon. After centrifuging at 1,500 rpm for 5 minutes, the cells in an intermediate layer were collected and incubated in X-VIVO 15 medium containing 50 μM 2ME, 0.5% fetal calf serum and 20 ng/mL rmGM-CSF (Pharmingen) in the CO2 incubator for one and a half hours. After pipetting gently, the suspended cells were removed, the X-VIVO 15 medium containing 50 μM 2ME, 0.5% fetal calf serum and 20 ng/mL rmGM-CSF (Pharmingen) was added, and the cells were incubated in the CO2 incubator for 18 hours. The suspended cells were collected, and the cells bound to anti-CD11c antibody-magnetic microbeads (Miltenyi) were collected to render spleen CD11c^+ DC. The CD11c^+ DC at 1×10^4 cells were suspended in 200 μL of RPMI medium containing 10% fetal calf serum in a 96-well round bottom microtiter plate, the liposome composition at a final concentration of 1 μg/mL was added thereto, and the plate was incubated in the incubator containing 5% CO^2 at 37° C. After 48 hours, culture supernatants were collected, and levels of IFN-α, IL-10 and IL-12 were measured by ELISA (FIGS. 1 and 2). The levels of IL-10 and IFN-α were high whereas the levels of IL-12 were low in Lipo-β and Lipo-Imq groups. Conversely, in Lipo-β-CpG and Lipo-Imq-CpG groups, the levels of IL-10 and IFNα were low whereas the levels of IL-12 were high. […] In the same evaluation method, the production levels of IL-10 in CD11c^+ DC by Lipo-Imq-βGC were measured.

[2] = test system: spleen dendritic cells (CD45RB/CD11c); assay: Analysis of dendritic cells in spleen of administered mice by flow cytometry; assay type: in vivo, BALB/c mice; details: 2 μg/mouse intraperitoneal, after 3 days
Method: Saline, α-GalCer, Lipo-(−) or Lipo-αGC (2 μg/mouse) was intraperitoneally administered in BALB/c mice, and after 3 days, the spleen was removed. Collagenase D (1 mg/mL, Roche) was injected into the spleen, which was then incubated in the CO2 incubator for 45 minutes. Subsequently, cells were collected from the spleen, suspended in 3 mL of HistoDenz (14.1%, SIGMA-Aldrich), and then the X-VIVO 15 medium (CAMBREX Bio Science Walkerville, Inc.) containing 50 μM 2-mercaptoethanol (2ME) was overlaid thereon. After centrifuging at 1,500 rpm for 5 minutes, the cells in the intermediate layer were collected. The cells were washed with the X-VIVO 15 medium containing 50 μm 2ME and 10% FCS, and suspended in phosphate buffered saline (PBS) containing 0.5% FCS. Biotinylated anti-CD3, -CD11b, -CD19, -CD49b, -Gr-1, -TER-119 and -B220 antibodies (all from BD Bioscience Pharmingen) were added to the cell suspension. The cells were incubated at 10° C. for 20 minutes, then washed once with PBS containing 0.5% FCS, and subsequently streptoavidin (SA)-conjugated magnetic beads (Miltenyi) were added thereto. […] The resulting cells were stained with PE-labeled anti-CD11c antibody (BD Bioscience Pharmingen) and APC-labeled anti-CD45RB antibody (BD Bioscience Pharmingen), and analyzed by flow cytometry. […]

NKT cells = details: cited from earlier work
antibody production [3] = assay: In vivo antibody production system using BDF1 mice; details: 2 μg/mouse intraperitoneal, days 0, 14, 55 and 64
Method: Saline, α-GalCer, Lipo-(−) or Lipo-αGC (2 μg/mouse) was intraperitoneally administered in BDF1 mice (C57BL/6×DBA/2F1) (5 mice/group), after 3 days (day 0), which were primarily immunized with DNP-OVA and alum, and further the mice was boosted with DNP-OVA alone on the 55th day (day 55) after the primary immunization. On days 0, 14, 55 and 64, the blood was collected from the orbital venous plexus, and antibody titers of ant-DNP-IgE, anti-DNP-IgG1, anti-DNP-IgG2a, and the levels of total IgE, total IgG1 and total IgG2a in the plasma were measured by ELISA.

IgE antibody production [4] = details: same experiment, mice deleting the Vα14-NKT cells; cited from earlier work
spleen CD4+ T cells = assay: T cell activation ability using BDF1 mice (MTT proliferation of spleen CD4+ T cells); assay type: cell-based; details: 2 μg/mouse intraperitoneal, all DNP-OVA concentrations examined, 48 hours
Method: Saline, α-GalCer, Lipo-(−) or Lipo-αGC (2 μg/mouse) was intraperitoneally administered in BDF1 mice, after 3 days, which were primarily immunized with DNP-OVA and alum. After 7 days, the spleen was removed, and CD4^+ T cells were prepared using magnetic microbeads (Miltenyi). Subsequently, antigen presenting cells were prepared by irradiating spleen whole cells from the normal BDF1 mouse with radiation of 20 Gy. The CD4^+ T cells at 2×10^5 and the antigen presenting cells at 2×10^5 pulsed with DNP-OVA suspended in 200 μL of the medium were placed in one well of the 96-well U bottom culture plate, and cultured in the incubator containing 5% CO2 at 37° C. After 48 hours, cell proliferation was assayed by MTT method (Promega #G4000).

type I diabetes model = details: administered to NOD mice; cited from earlier work
antibody production [5] = assay: In vivo antibody production system using IL-10-deficient mice; set-up: species or system IL-10-deficient mice with C57BL/6 background; details: 2 μg/mouse intraperitoneal 3 days before immunization, day 14
Method: Saline, α-GalCer, Lipo-(−) or Lipo-αGC (2 μg/mouse) was intraperitoneally administered in C57BL/6 mice (5 mice/group), after 3 days, which were primarily immunized with DNP-OVA and alum. On the 14th day after the primary immunization, the blood was collected from the orbital venous plexus, and antibody titers of ant-DNP-IgG1, anti-DNP-IgE and anti-DNP-IgG2a in the plasma were measured by ELISA. […] The same experiment was performed using the IL-10-deficient mice with C57BL/6 background.

[6] = test system: spleen whole cells from Vα14-NKT cell-deficient mouse; assay: Cytokine production in spleen whole cells from Vα14-NKT cell-deficient mouse; assay type: cell-based, Vα14-NKT cell-deficient mouse (C57BL/6 background); details: 100 ng/mL, 2 days
Method: (§1) Spleen whole cells at 2×10^5 from C57BL/6 mouse were suspended in 200 μL of 10% fetal calf serum (FCS)-containing RPMI medium to which 100 ng/mL Lipo-(−), Lipo-αGC or α-galactosyl ceramide aqueous solution (α-GalCer) had been added, then the cell suspension was added to a 96-well U bottom culture plate, and cultured in the incubator containing 5% CO2 at 37° C. for 2 days. The levels of IFN-γ, IL-4 and IL-10 produced in the culture supernatant were measured by ELISA (FIG. 7 upper panels). The levels of IFN-γ and IL-4 were equivalent in Lipo-αGC group and αGalCer group, but the level of IL-10 in the Lipo-α group was 5 times higher than that in the α-GalCer group. When the same experiments were performed in the presence of anti-CD1d neutralization antibody (1B1, BD Bioscience PharMingen) at a final concentration of 10 μg/mL or using spleen whole cells from Vα14-NKT cell-deficient mouse (C57BL/6 background), IFN-γ, IL-4 and IL-10 in the culture supernatant were not detected (FIG. 7, lower panels).

spleen whole cells = assay: Cytokine production by Lipo-αGC in spleen whole cells; assay type: cell-based, C57BL/6 mouse
Method: as §1

IgE antibody production [7] = details: administered to C57BL/6 mice; cited from earlier work
IgE = details: patients with atopic asthma; cited from earlier work
[8] = in the presence of anti-CD1d neutralization antibody 10 μg/mL

IgE, sequence (P01854 1-425 limits assumed): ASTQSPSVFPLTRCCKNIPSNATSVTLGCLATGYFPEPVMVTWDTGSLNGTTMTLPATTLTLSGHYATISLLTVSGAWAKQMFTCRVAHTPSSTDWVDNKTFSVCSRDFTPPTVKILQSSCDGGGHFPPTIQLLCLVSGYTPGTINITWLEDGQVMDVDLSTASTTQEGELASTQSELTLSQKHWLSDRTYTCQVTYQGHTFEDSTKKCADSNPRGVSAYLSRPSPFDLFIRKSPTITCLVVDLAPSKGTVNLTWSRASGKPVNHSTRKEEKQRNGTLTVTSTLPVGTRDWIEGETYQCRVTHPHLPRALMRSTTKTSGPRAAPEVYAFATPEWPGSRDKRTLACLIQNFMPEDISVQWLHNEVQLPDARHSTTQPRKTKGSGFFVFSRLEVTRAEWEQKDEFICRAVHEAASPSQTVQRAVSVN

Molecule: β-glycosyl ceramide
- activity compared with immunopotentiation and anti-tumor effects of α-galactosyl ceramide compound [1]: much lower activity

Molecule: ceramide β-D-galactoside [β-GalCer]
- activity compared with immunopotentiation and anti-tumor effects of α-galactosyl ceramide compound [1]: much lower activity
- level of IFN-α in culture supernatant (spleen CD11c+ DC): not detected or was very low
- level of IL-10 in culture supernatant (spleen CD11c+ DC): not detected or was very low
- level of IL-12 in culture supernatant (spleen CD11c+ DC): not detected or was very low

Molecule: CCCCCCCCCCCCCCCCCCCCCCCCCC(=O)N[C@@H](CO[C@H]1O[C@H](CO)[C@H](O)[C@H](O)[C@H]1O)[C@H](O)[C@H](O)CCCCCCCCCCCCCC [α-GalCer, α-Galactosyl ceramide]
- number of CD45RBlowCD11chigh cells in the spleen [2]: more than in the mouse administered with Lipo-αGC
- ratio of CD45RBhighCD11clow cells versus ratio of CD45RBlowCD11chigh cells [2]: reversed
- cytokine production of both IFN-γ and IL-4 (NKT cells): induces
- changes of total IgG1, Lipo-αGC group versus α-GalCer or Lipo-(−) group (antibody production [3]): nearly equivalent
- changes of total IgG2a, Lipo-αGC group versus α-GalCer or Lipo-(−) group (antibody production [3]): nearly equivalent
- production of IgE antibody (IgE antibody production [4]): not inhibited
- proliferation of CD4+ T cells in response to DNP-OVA (spleen CD4+ T cells): highly proliferated
- symptoms in type I diabetes model (type I diabetes model): symptomatic improvement was observed
- inhibitory effect on the antibody production (antibody production [5]): no inhibitory effect
- IFN-γ in the culture supernatant [6]: not detected
- IL-4 in the culture supernatant [6]: not detected
- IL-10 in the culture supernatant [6]: not detected
- level of IFN-γ in culture supernatant, Lipo-αGC group versus αGalCer group (spleen whole cells; 100 ng/mL, 2 days, ELISA): equivalent
- level of IL-4 in culture supernatant, Lipo-αGC group versus αGalCer group (spleen whole cells; 100 ng/mL, 2 days, ELISA): equivalent
- IFN-γ in the culture supernatant (spleen whole cells; [8]): not detected
- IL-4 in the culture supernatant (spleen whole cells; [8]): not detected
- IL-10 in the culture supernatant (spleen whole cells; [8]): not detected
- production of IgE antibody induced by DNP-OVA and alum (IgE antibody production [7]): inhibited

Molecule: rhuMAb-E25: humanized anti-IgE antibody (Genentech Inc.)
- effectiveness in clinical trials (IgE): highly effective
